From paper PMC5217299, “Triptolide Induces hepatotoxicity via inhibition of CYP450s in Rat liver microsomes” (BMC Complementary and Alternative Medicine, 2017) come the findings set out here.

The term Km denotes the concentration of substrate that gives half-maximal velocity.

In this assay the test system is T1, CYP3A.
T1 construct: gene Cyp3a1; native isoenzyme mixture in liver microsomes of female SD rats
Put plainly: UHPLC-MS/MS of 1-hydroxymidazolam formation, cocktail probe, Michaelis-Menten fit. The note with it: liver microsomes of vehicle control rats; cocktail of six substrates together; NADPH regeneration system, pH 7.4, 37 °C. Background: Liver microsomes are a subcellular fraction often used to study metabolism.

Each structure is given as a SMILES string.

Consider `Cc1ncc2n1-c1ccc(Cl)cc1C(c1ccccc1F)=NC2` [midazolam], for which the Km amounted to 1.99 ± 0.267 µM.
